Measured values reported in PMC4145318, “Marinopyrrole Derivatives with Sulfide Spacers as Selective Disruptors of Mcl-1 Binding to Pro-Apoptotic Protein Bim” (Marine Drugs, 2014).
Where two headings read alike, the source gives them in different places.

What was measured:
Mcl-1/Bim [1] = target: T1, Mcl-1/Bim (Homo sapiens, UniProt Q07820); test: ELISA, disruption of Mcl-1 binding to Bim; details: for IC50: ELISA; for fold more potent than 1 against Mcl-1/Bim: ELISA IC50 vs. marinopyrrole A (1)
Protocol: (§1) ELISAs were performed using a similar procedure as previously described. Briefly, 40 nM of biotinylated Bim BH3 peptide (Biomatik, Wilmington, DE, USA) in SuperBlock blocking buffer (Thermo Scientific Pierce, Rockford, IL, USA) was incubated in high-binding capacity streptavidin coated plates (Thermo Scientific Pierce, Rockford, IL, USA) for 2 h. Compounds were diluted in 120 µL of PBS containing 10 nM of GST-Mcl-1 or 10 nM GST-Bcl-xL in 1.5-mL tubes for 15 min. Wells were washed with wash buffer (PBS containing 0.05% Tween-20) and then 100 µL of the compound/GST-protein mixture was transferred to the Bim-containing wells. The plates were incubated for 2 h, and then, the wells were washed with wash buffer. HRP-conjugated anti-GST antibody (Bethyl Laboratories, Montgomery, TX, USA) was diluted 1:2000 in SuperBlock, and 100 µL were transferred to each well. The plate was incubated for 1 h, and then, the wells were washed with wash buffer followed by PBS. One hundred microliters of SureBlue TMB Microwell Peroxidase Substrate (VWR International, Radnor, PA, USA) was added to each well, and the plates were developed for 5–10 min. One hundred microliters of 1 N HCl was added to each well to stop the reaction, and the absorbance was read at 450 nm using a µQuant plate reader (Bio-Tek Instruments, Winooski, VT, USA).

Bcl-xL/Bim [2] = target: T2, Bcl-xL/Bim (Homo sapiens, UniProt Q07817); test: ELISA, disruption of Bcl-xL binding to Bim; details: for IC50: ELISA; for fold more potent than 1 against Bcl-xL/Bim: ELISA IC50 vs. marinopyrrole A (1)
Protocol: as §1

MDA-MB-468 cells [3] = test: MTT assay; details: read-out: estimated IC50, inhibition of MDA-MB-468 cell growth
Protocol: In addition, the ability of the compounds to inhibit tumor growth of MDA-MB-468 cells was determined by MTT assays. To this end, MDA-MB-468 cells were treated for 48 h with the compounds at 0, 0.5, 5 and 50 μM, and the cells were processed for MTT assays as described by us [39].
MDA-MB-468 cells were treated and processed for MTT, DAPI nuclear staining and phase imaging of cells as described previously by us [39].

MDA-MB-468 cells [4] = test: Apoptosis induction (cleaved caspase 3, Western blotting); details: 40 μM for 16 h
Protocol: (§2) The cells were then processed for Western blotting exactly as described by us previously [16, 38]. […] We next evaluated the effects of the compounds on programed cell death (apoptosis) by determining their ability to induce cleaved caspase 3 in MDA-MB-468 cells.
(§3) Treatment of the human breast cancer (MDA-MB-468) cells and Western blotting were performed using the methods described by us previously [16, 38].

[5] = test system: Mcl-1 levels in MDA-MB-468 cells; test: Western blotting of Mcl-1 levels in intact breast cancer cells; details: 40 μM for 16 h
Protocol: as §2, §3

Mcl-1 = target: T3, Mcl-1 (Homo sapiens, UniProt Q07820); test: Fluorescence-quenching direct binding assay (intrinsic Trp fluorescence); details: 2.5 μM His-tagged Mcl-1 (residues 172–327), pH 7.6
T3 construct: Recombinant His-tagged Mcl-1 (residues 172–327) was purified as previously described; His; made in house
Protocol: To confirm direct binding of the compounds to Mcl-1, we have established a fluorescence-quenching assay based on the intrinsic Trp fluorescence of Mcl-1 [37].
Recombinant His-tagged Mcl-1 (residues 172–327) was purified as previously described. Intrinsic Trp fluorescence of Mcl-1 was measured with a TECAN M1000 plate reader at excitation wavelength of 285 nm and emission wavelengths of 310–400 nm. Serial dilutions of compound 9 (starting from 20 μM) in 20 mM K-phosphate pH 7.6, […] was used to assay compound binding using 2.5 μM of Mcl-1. Each condition is run at triplicate and binding constants are calculated by nonlinear regression analysis of dose response curves using Prism software 6.0 (Graphpad, La Jolla, CA, USA). Control experiments included titration of DMSO solvent and fluorescence quenching of denatured Mcl-1 in the presence of compound.

Mcl-1/Bim [6] = target: T1, Mcl-1/Bim; details: ELISA; average ± SEM, n ≥ 3; data previously reported; cited from earlier work
Bcl-xL/Bim [7] = target: T2, Bcl-xL/Bim; design: method as in PMID 24608970; details: ELISA; average ± SEM, n ≥ 3; data previously reported; cited from earlier work
[8] = aqueous; stated without method or reference; cited from earlier work
[9] = average ± SEM, n ≥ 3, 10 nM GST-Mcl-1, 40 nM biotinylated Bim BH3 peptide, read-out: Mcl-1/Bim IC50
[10] = average ± SEM, n ≥ 3 (n = 2 where given), 10 nM GST-Bcl-xL, 40 nM biotinylated Bim BH3 peptide, read-out: Bcl-xL/Bim IC50
[11] = read-out: IC50 Mcl-1/Bim disruption (abstract)
[12] = read-out: IC50 Bcl-xL/Bim disruption (abstract)

T1 sequence (Q07820 whole entry): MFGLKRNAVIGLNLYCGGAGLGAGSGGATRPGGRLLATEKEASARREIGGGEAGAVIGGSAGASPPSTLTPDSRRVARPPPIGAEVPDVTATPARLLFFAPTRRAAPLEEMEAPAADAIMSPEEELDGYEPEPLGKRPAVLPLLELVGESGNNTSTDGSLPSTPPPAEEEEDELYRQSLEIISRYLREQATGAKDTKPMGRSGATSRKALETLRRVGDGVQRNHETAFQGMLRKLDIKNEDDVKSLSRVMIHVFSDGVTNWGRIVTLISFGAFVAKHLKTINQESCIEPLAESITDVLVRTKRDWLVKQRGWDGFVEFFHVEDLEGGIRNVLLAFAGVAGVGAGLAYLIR
T2 sequence (Q07817 whole entry): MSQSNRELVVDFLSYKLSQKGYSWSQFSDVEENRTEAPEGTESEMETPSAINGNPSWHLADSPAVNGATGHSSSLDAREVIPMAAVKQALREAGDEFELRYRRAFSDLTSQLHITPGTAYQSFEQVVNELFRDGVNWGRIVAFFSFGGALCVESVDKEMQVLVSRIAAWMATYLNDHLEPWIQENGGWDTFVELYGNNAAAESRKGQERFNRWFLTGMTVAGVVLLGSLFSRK
T3 sequence (Q07820 172-327): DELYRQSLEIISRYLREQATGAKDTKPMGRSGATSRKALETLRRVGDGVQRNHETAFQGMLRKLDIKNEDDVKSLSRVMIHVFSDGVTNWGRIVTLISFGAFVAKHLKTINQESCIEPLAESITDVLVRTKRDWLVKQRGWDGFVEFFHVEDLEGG

Structure (SMILES) | IC50 (Mcl-1/Bim [1]; [9]) | IC50 (Bcl-xL/Bim [2]; [10]) | IC50 (MDA-MB-468 cells [3]; Homo sapiens, MDA-MB-468, 48 h) | induction of apoptosis (cleaved caspase 3) (MDA-MB-468 cells [4]) | fold more potent than 1 against Mcl-1/Bim (Mcl-1/Bim [1]) | IC50 (Mcl-1/Bim [1]; [11]) | fold more potent than 1 against Bcl-xL/Bim (Bcl-xL/Bim [2]) | IC50 (Bcl-xL/Bim [2]; [12]) | decrease in the levels of Mcl-1 [5] | selectivity for Mcl-1/Bim over Bcl-xL/Bim (Mcl-1/Bim [1]; ratio of ELISA IC50 values) | Kd (Mcl-1) | IC50 (Mcl-1/Bim [6]) | IC50 (Bcl-xL/Bim [7]) | solubility [8] | IC50 (MDA-MB-468 cells [3]; MTT, 48 h, compounds at 0, 0.5, 5 and 50 μM, estimated)
O=C(c1ccc(S(=O)(=O)Cc2ccccc2)cc1O)c1[nH]c(Cl)c(Cl)c1-n1c(C(=O)c2ccc(S(=O)(=O)Cc3ccccc3)cc2O)cc(Cl)c1Cl [Compound 7, (4,4′,5,5′-Tetrachloro-1′H-1,3′-bipyrrole-2,2′-diyl)bis(((2-hydroxy-4-benzylsulfonyl)phenyl)methanone)] | 7.3 ± 1.4 µM | 69.3 ± 15.8 µM | 20 µM | potently induced apoptosis |  |  |  |  |  |  |  |  |  |  | 
COc1ccc(CSc2ccc(C(=O)c3[nH]c(Cl)c(Cl)c3-n3c(C(=O)c4ccc(SCc5ccc(OC)cc5)cc4O)cc(Cl)c3Cl)c(O)c2)cc1 [Compound 5] | 0.7 ± 0.1 µM | 0.6 ± 0.1 µM | 50 µM | potently induced apoptosis | 12.7 fold | 0.6 µM | 27.3 fold | 0.7 µM | highly potent |  |  |  |  |  | 
CCOC(=O)CSc1ccc(C(=O)c2[nH]c(Cl)c(Cl)c2-n2c(C(=O)c3ccc(SCC(=O)OCC)cc3O)cc(Cl)c2Cl)c(O)c1 [Compound 3] | 1.8 ± 0.3 µM | 1.2 ± 0.2 µM | 3 µM | potently induced apoptosis | five |  |  |  | highly potent |  |  |  |  |  | 
O=C(O)CSc1ccc(C(=O)c2[nH]c(Cl)c(Cl)c2-n2c(C(=O)c3ccc(SCC(=O)O)cc3O)cc(Cl)c2Cl)c(O)c1 [Compound 9] | 6.1 ± 1.3 µM | > 100 µM | 29 µM | weak |  |  |  |  | moderately active | 16.4 fold | 2.7 µM |  |  |  | 
O=C(c1ccccc1O)c1[nH]c(Cl)c(Cl)c1-n1c(C(=O)c2ccccc2O)cc(Cl)c1Cl [Compound 1, marinopyrrole A, reference compound] | 25.1 ± 4.7 µM | 96.6 µM |  | potently induced apoptosis |  |  |  |  | significant decrease |  |  | 8.9 ± 1 µM | 16.4 ± 3.3 µM | poor solubility | 2 µM
COc1ccc(CS(=O)(=O)c2ccc(C(=O)c3[nH]c(Cl)c(Cl)c3-n3c(C(=O)c4ccc(S(=O)(=O)Cc5ccc(OC)cc5)cc4O)cc(Cl)c3Cl)c(O)c2)cc1 [Compound 8] | 17.4 ± 3.1 µM | > 100 µM | 50 µM | weak |  |  |  |  | moderately active |  |  |  |  |  | 
O=C(O)CS(=O)(=O)c1ccc(C(=O)c2[nH]c(Cl)c(Cl)c2-n2c(C(=O)c3ccc(S(=O)(=O)CC(=O)O)cc3O)cc(Cl)c2Cl)c(O)c1 [Compound 10] | 63 ± 5.4 µM | > 100 µM | 20 µM | potently induced apoptosis |  |  |  |  | highly potent |  |  |  |  |  | 
O=C(c1ccc(SCc2ccccc2)cc1O)c1[nH]c(Cl)c(Cl)c1-n1c(C(=O)c2ccc(SCc3ccccc3)cc2O)cc(Cl)c1Cl [Compound 4, (4,4′,5,5′-Tetrachloro-1′H-1,3′-bipyrrole-2,2′-diyl)bis(((2-hydroxy-4-benzylthio)phenyl)methanone)] | 0.7 ± 0.2 µM | 0.6 ± 0.2 µM | 28 µM | potently induced apoptosis | 12.7 fold | 0.6 µM | 27.3 fold | 0.7 µM | highly potent |  |  |  |  |  | 
CCOC(=O)c1[nH]c(Cl)c(Cl)c1-n1c(C(=O)c2ccccc2O)cc(Cl)c1Cl [Compound 12] | 11.5 ± 1.9 µM | 17.6 ± 4.5 µM | 16 µM | weak |  |  |  |  | moderately active |  |  |  |  |  | 
CCOC(=O)c1cc(Cl)c(Cl)n1-c1c(C(=O)c2ccccc2O)[nH]c(Cl)c1Cl [Compound 11] |  |  | 2 µM | potently induced apoptosis |  |  |  |  | highly potent |  |  |  |  |  | 
CCOC(=O)CS(=O)(=O)c1ccc(C(=O)c2[nH]c(Cl)c(Cl)c2-n2c(C(=O)c3ccc(S(=O)(=O)CC(=O)OCC)cc3O)cc(Cl)c2Cl)c(O)c1 [Compound 6] | 37.3 ± 3.1 µM | > 100 µM | 50 µM | potently induced apoptosis |  |  |  |  | highly potent |  |  |  |  |  | 
